Like-named read-outs stand apart in the source and are kept apart here.
Experiment: Plasma AMG 232 pharmacokinetics (HPLC-MS, non-compartmental analysis)
Format: in vivo, human
Settings: for AUC(0-t) / Cmax / Tmax / Vd/F: human, plasma, oral; for AUC(0-t): read-out: AUC24h, mean (SD); for Cmax: read-out: Cmax, mean (SD); for Tmax: read-out: tmax, median (range); for Vd/F: read-out: Vz/F, mean (SD)
Description: Non-compartmental analysis was performed using WinNonlin Professional software, version 6.3. Parameters were summarized descriptively.

[1] = 15 mg, Day 1, dose escalation, 15 mg (n = 3)
[2] = 15 mg, Day 7, dose escalation, 15 mg (n = 3)
[3] = 30 mg, Day 1, dose escalation, 30 mg (n = 3)
[4] = 30 mg, Day 7, dose escalation, 30 mg (n = 3)
[5] = 60 mg, Day 1, dose escalation, 60 mg (n = 2–4)
[6] = 60 mg, Day 7, dose escalation, 60 mg (n = 2–4)
[7] = 120 mg, Day 1, dose escalation, 120 mg (n = 4–7)
[8] = 120 mg, Day 7, dose escalation, 120 mg (n = 4–7)
[9] = 240 mg, Day 1, 240-mg dose expansion, DDLPS (n = 6–10)
[10] = 240 mg, Day 1, 240-mg dose expansion, ER + PR+ Breast (n = 6–8)
[11] = 240 mg, Day 1, 240-mg dose expansion, ER + PR– Breast (n = 4)
[12] = 240 mg, Day 1, 240-mg dose expansion, GBM (n = 6–9)
[13] = 240 mg, Day 1, 240-mg dose expansion, Multiple Myeloma (n = 7–10)
[14] = 240 mg, Day 1, 240-mg dose expansion, Other Solid (n = 9–16)
[15] = 240 mg, Day 1, 240-mg dose expansion, Total (n = 47–67)
[16] = 240 mg, Day 1, 240-mg dose expansion, WDLPS (n = 9–10)
[17] = 240 mg, Day 1, Parts 1 and 2, 240 mg (n = 54–75)
[18] = 240 mg, Day 1, dose escalation, 240 mg (n = 7–8)
[19] = 240 mg, Day 7, 240-mg dose expansion, DDLPS (n = 6–10)
[20] = 240 mg, Day 7, 240-mg dose expansion, ER + PR+ Breast (n = 6–8)
[21] = 240 mg, Day 7, 240-mg dose expansion, ER + PR– Breast (n = 4)
[22] = 240 mg, Day 7, 240-mg dose expansion, GBM (n = 6–9)
[23] = 240 mg, Day 7, 240-mg dose expansion, Multiple Myeloma (n = 7–10)
[24] = 240 mg, Day 7, 240-mg dose expansion, Other Solid (n = 9–16)
[25] = 240 mg, Day 7, 240-mg dose expansion, Total (n = 47–67)
[26] = 240 mg, Day 7, 240-mg dose expansion, WDLPS (n = 9–10)
[27] = 240 mg, Day 7, Parts 1 and 2, 240 mg (n = 54–75)
[28] = 240 mg, Day 7, dose escalation, 240 mg (n = 7–8)
[29] = 300 mg, Day 1, dose escalation, 300 mg (n = 3–4)
[30] = 300 mg, Day 7, dose escalation, 300 mg (n = 3–4)
[31] = 360 mg, Day 1, dose escalation, 360 mg (n = 3–4)
[32] = 360 mg, Day 7, dose escalation, 360 mg (n = 3–4)
[33] = 480 mg, Day 1, dose escalation, 480 mg (n = 5–6)
[34] = 480 mg, Day 7, dose escalation, 480 mg (n = 5–6)

With `CC(C)[C@@H](CS(=O)(=O)C(C)C)N1C(=O)[C@@](C)(CC(=O)O)C[C@H](c2cccc(Cl)c2)[C@H]1c1ccc(Cl)cc1` [AMG 232] the “Dose proportionality of plasma concentrations” value (15–480 mg QD for 7 days Q3W) was “increased generally dose proportionally”, the AUC(0-t) [1] was 884 ng·h/mL and the Cmax [1] was 169 ng/mL. The Tmax [1] was 3.1 h, the AUC(0-t) [2] was 949 ng·h/mL and the Cmax [2] was 130 ng/mL. The Vd/F [2] was 497 L, the Tmax [2] was 3.1 h and the AUC(0-t) [3] was 1960 ng·h/mL. It also gave a Cmax [3] of 255 ng/mL, a Tmax [3] of 3 h and an AUC(0-t) [4] of 2830 ng·h/mL. For the same compound, the Cmax [4] was 259 ng/mL, the Tmax [4] was 3 h and the AUC(0-t) [5] was 2950 ng·h/mL. The Cmax [5] was 527 ng/mL, the Tmax [5] was 3 h and the AUC(0-t) [6] was 4000 ng·h/mL. The Cmax [6] was 457 ng/mL, the Vd/F [6] was 360 L and the Tmax [6] was 4 h. The AUC(0-t) [7] was 5160 ng·h/mL, the Cmax [7] was 599 ng/mL and the Tmax [7] was 3 h. It also gave an AUC(0-t) [8] of 8940 ng·h/mL, a Cmax [8] of 868 ng/mL and a Vd/F [8] of 664 L. The Tmax [8] was 3 h, the AUC(0-t) [9] was 8010 ng·h/mL and the Cmax [9] was 986 ng/mL. The Tmax [9] was 2 h, the AUC(0-t) [10] was 9660 ng·h/mL and the Cmax [10] was 1920 ng/mL. It also gave a Tmax [10] of 2.8 h, an AUC(0-t) [11] of 9430 ng·h/mL and a Cmax [11] of 1360 ng/mL. The Tmax [11] was 2.1 h, the AUC(0-t) [12] was 5360 ng·h/mL and the Cmax [12] was 978 ng/mL. For the same compound, the Tmax [12] was 3 h, the Cmax [13] was 1320 ng/mL and the Tmax [13] was 2 h. It also gave an AUC(0-t) [14] of 10800 ng·h/mL, a Cmax [14] of 1670 ng/mL and a Tmax [14] of 3 h. The AUC(0-t) [15] was 8830 ng·h/mL, the Cmax [15] was 1390 ng/mL and the Tmax [15] was 3 h. For the same compound, the AUC(0-t) [16] was 9260 ng·h/mL, the Cmax [16] was 1350 ng/mL and the Tmax [16] was 3.1 h. For the same compound, the AUC(0-t) [17] was 8480 ng·h/mL, the Cmax [17] was 1350 ng/mL and the Tmax [17] was 3 h. The AUC(0-t) [18] was 5690 ng·h/mL, the Cmax [18] was 1030 ng/mL and the Tmax [18] was 2 h. For the same compound, the AUC(0-t) [19] was 10800 ng·h/mL, the Cmax [19] was 1050 ng/mL and the Vd/F [19] was 537 L. It also gave a Tmax [19] of 3 h, a Cmax [20] of 1350 ng/mL and a Vd/F [20] of 689 L. For the same compound, the Tmax [20] was 2.8 h, the AUC(0-t) [21] was 9960 ng·h/mL and the Cmax [21] was 1620 ng/mL. It also gave a Vd/F [21] of 814 L, a Tmax [21] of 1 h and an AUC(0-t) [22] of 9210 ng·h/mL. For the same compound, the Cmax [22] was 988 ng/mL, the Vd/F [22] was 1010 L and the Tmax [22] was 2.8 h. For the same compound, the AUC(0-t) [23] was 8450 ng·h/mL, the Cmax [23] was 1190 ng/mL and the Vd/F [23] was 859 L. For the same compound, the Tmax [23] was 1.1 h, the AUC(0-t) [24] was 17200 ng·h/mL and the Cmax [24] was 2200 ng/mL. The Vd/F [24] was 353 L, the Tmax [24] was 2.9 h and the AUC(0-t) [25] was 12300 ng·h/mL. The Cmax [25] was 1420 ng/mL, the Vd/F [25] was 627 L and the Tmax [25] was 2.8 h. It also gave an AUC(0-t) [26] of 15700 ng·h/mL, a Cmax [26] of 1230 ng/mL and a Vd/F [26] of 389 L. For the same compound, the Tmax [26] was 3 h, the AUC(0-t) [27] was 12100 ng·h/mL and the Cmax [27] was 1440 ng/mL. It also gave a Vd/F [27] of 613 L, a Tmax [27] of 2.9 h and an AUC(0-t) [28] of 10600 ng·h/mL. For the same compound, the Cmax [28] was 1560 ng/mL, the Vd/F [28] was 523 L and the Tmax [28] was 3 h. It also gave an AUC(0-t) [29] of 14700 ng·h/mL, a Cmax [29] of 1740 ng/mL and a Tmax [29] of 3 h. The AUC(0-t) [30] was 25000 ng·h/mL, the Cmax [30] was 2090 ng/mL and the Vd/F [30] was 762 L. It also gave a Tmax [30] of 3.1 h, an AUC(0-t) [31] of 15800 ng·h/mL and a Cmax [31] of 2380 ng/mL. The Tmax [31] was 2 h, the AUC(0-t) [32] was 15500 ng·h/mL and the Cmax [32] was 2050 ng/mL. For the same compound, the Vd/F [32] was 423 L, the Tmax [32] was 2 h and the AUC(0-t) [33] was 18800 ng·h/mL. It also gave a Cmax [33] of 2630 ng/mL, a Tmax [33] of 3 h and an AUC(0-t) [34] of 18400 ng·h/mL. It also gave a Cmax [34] of 1750 ng/mL, a Vd/F [34] of 585 L and a Tmax [34] of 3.1 h. The Vd/F (Day 7, Parts 1 and 2, All Doses (n = 76–97)) was 615 L.

— PMC7211202 (Investigational New Drugs, 2019)
